Patent US20240368133A1, “Compounds for the Treatment of Pain, in Particular, Neuropathic Pain, and/or Other Diseases or Disorders that are Associated with AT2R and/or AT2R Mediated Signaling” (Confo Therapeutics N.V., priority 2021, published 2024)

Experiment: Thermodynamic solubility protocol 2 (FaSSIF, FeSSIF)
Type: physicochemical
Settings: 25° C.
Protocol: In a 8 mL glass vial, 1-2 mg of dry matter of the test compound were mixed with the suitable buffers (Fed State Simulated Intestine Fluid (FeSSIF) or Fasted State Simulated Intestine Fluid (FaSSIF)) to reach a theoretical concentration of 4 mM. The solutions were allowed to further equilibrate at 25° C. on a thermostatic shaker. After 4 and 24 hours of shaking, respectively, the incubation mixtures were filtered through HTS filter plates using a vacuum manifold. The filtrates of test compounds were diluted 500-fold with acetonitrile/buffer mixtures with 2% DMSO before measuring. In parallel, using a 20 mM DMSO stock solution, compound dilutions in 50% acetonitrile/buffer (v/v) were prepared to the theoretical concentrations of 0 μM (blank), 10 μM, 25 μM, 50 μM, 100 μM and 200 μM with 2% final DMSO to generate calibration curves. Calibration standards were diluted 100-fold with 50% acetonitrile/water (v/v) mixes before LC-MS/MS measurement (systems API4000 QTRAP).

TSOL FaSSIF pH 6.5 (time point 4 h): >400 μM
TSOL FeSSIF pH 5.0 (time point 4 h): >400 μM
TSOL FaSSIF pH 6.5 (time point 24 h): >400 μM
TSOL FeSSIF pH 5.0 (time point 24 h): >400 μM
Structure (SMILES): CC(C)Cc1cc(F)c(-c2nn[nH]n2)c(N2CCN(Cc3cccnn3)[C@@H](C)C2)c1 [Compound A-174, 3-[[(2S)-4-[3-fluoro-5-isobutyl-2-(2H-tetrazol-5-yl)phenyl]-2-methyl-piperazin-1-yl]methyl]pyridazine]
